The source of these data is patent US5371081A, “N-substituted phenoxazines for treating multidrug resistant cancer cells” (St. Jude Children's Research Hospital, priority 1993, dated 1994).

The test system of one assay is KB Ch^R -8-5 Cells. Briefly: Potentiation of cytotoxicity of vincristine and vinblastine. It is filed as cell-based. Particulars: Homo sapiens, 168 h, read-out: IC50 of VCR alone. As to the method:
(§1) Tumor cells were treated with graded concentrations of VCR and VLB in the absence or presence of nontoxic concentrations of the products of Examples 1, 3, 4 and 18. The plates were then transferred to a CO2 incubator and, after further incubation for 7 days at 37° C., colonies were enumerated as described in Example 23.
(§2) ^a IC50 concentration of modulator

The subject of a further assay is GC3 /Cl Cells. The assay is described as above. Type of assay: cell-based. Particulars: Homo sapiens, 168 h, read-out: IC50 of VCR alone. The protocol:
as §1, §2

The next assay relates to GC3 /CL. Briefly: Resistance of cell line to VCR. Particulars: relative to KB-3-1. Type of assay: cell-based, human. The protocol:
(§3) A cloned line of human colon adenocarcinoma, GC3 /Cl^31, which is intrinsically resistant to VCR (≈4-fold relative to KB-3-1), was routinely grown at 37° C. in antibiotic-free RPMI-1640 medium supplemented with 2 mM glutamine and 10% FBS (Hyclone Laboratories, Inc., Logan, Utah) in a humidified atmosphere of 5% CO2 and 95% air. Human epidermoid carcinoma KB-3-1 cells and a colchicine selected MDR variant, KBCh®-8-5, were obtained which was cross-resistant to VCR (45-fold) and VLB (6.3-fold); it was grown in monolayer culture at 37° C. in DMEM with 10% FBS and L-glutamine in a humidified atmosphere of 10% CO2 in air. The resistance of the KBCh®-8-5 cells was maintained by culturing them with colchicine (10 ng/ml).

The next assay concerns KBCh®-8-5. Briefly: Cross-resistance of cell line to VCR and VLB. It is filed as cell-based, human. The note with it: KBCh®-8-5, colchicine selected MDR variant. As to the method:
as §3

A further assay deals with KBCh®-8-5 cells. Particulars: compared with verapamil; cited from earlier work.
A further assay deals with MDR GC3 /Cl cells. The note with it: compared with verapamil; cited from earlier work.

The term pIC50 denotes −log10 of the IC50, conventionally taken in molar units.

pIC50: −log10 of the molar value.

For `CC[C@]1(O)C[C@H]2CN(CCc3c([nH]c4ccccc34)[C@@](C(=O)OC)(c3cc4c(cc3OC)N(C=O)[C@H]3[C@@](O)(C(=O)OC)[C@H](OC(C)=O)[C@]5(CC)C=CCN6CC[C@]43[C@@H]65)C2)C1` [VCR], the figures for the pIC50 in the assay on KB Ch^R -8-5 Cells and in the assay on GC3 /Cl Cells were 7.49 and 7.57, respectively. The “resistance to VCR” value with GC3 /CL is “≈ 4 fold”. Moreover, the “cross-resistance to VCR” value with KBCh®-8-5 is given as 45 fold.

Turning to `c1ccc2c(c1)Nc1ccccc1O2` [phenoxazine], the “potentiation of uptake of VCR and VLB” value with KBCh®-8-5 cells and with MDR GC3 /Cl cells was “to a greater extent than verapamil” each time.
